# Data: patent publication US9963474B2, “Mitochondria-targeted dicarbonyl sequestering compounds” (MEDICAL RESEARCH COUNCIL, priority 2013, dated 2018)
# Assay: Reaction rate with methylglyoxal (UV/Vis and fluorometric kinetics)
# Settings: 37° C., means±SE, n=3
# Protocol: (A) The reactions between MitoG (100 μM) and 1,2-dicarbonyls (25 μM) at 37° C. were followed from the formation of the quinoxaline products at 345 nm. (B) Fluorimetric detection of the reaction between MitoG and methylglyoxal (40 μM each), and between MitoG and glyoxal (200 μM each) was observed by monitoring the quinoxaline products at excitation and emission wavelengths of 344 and 433 nm, respectively. The changes in fluorescence caused by MQE and QE formation was quantified from calibration curves constructed by plotting fluorescence (excitation and emission wavelengths of 344 and 433 nm, respectively) against known amounts of either quinoxaline and were linear up to at least 20 μM.
# TPP-conjugated compounds were made up as 10 mM stock solutions in DMSO, flushed with argon and stored as aliquots at −20° C. […] The molar extinction coefficients were calculated from the absorbance at maximal absorption (λmax) for the compounds for solutions of known concentration. Reaction rates between MitoG and 1,2-dicarbonyls were determined from the initial linear slope over the first 30 s at the λmax for the formation of the relevant quinoxaline. Fluorescence spectra were obtained in 2.5 ml KCl buffer using a Shimadzu RF-301PC fluorimeter with slit widths of 3 nm. […]
structure (smiles),measurement,value
"Nc1ccc(OCCCCCC[P+](c2ccccc2)(c2ccccc2)c2ccccc2)cc1N [MitoG, (6-(3,4-Diaminophenoxy)hexyl)triphenylphosphonium chloride]",rate constant for reaction with methylglyoxal,19 ± 1 M⁻¹ s⁻¹
